Results from ChEMBL document CHEMBL4840306, “Chemodynamic therapy agents Cu(II) complexes of quinoline derivatives induced ER stress and mitochondria-mediated apoptosis in SK-OV-3 cells” (Eur J Med Chem, 2021).

Assays:
SK-OV-3 = test: Cytotoxicity against human SK-OV-3 cells assessed as reduction in cell viability measured after 48 hrs by MTT assay; assay type: functional, cell-based; conditions: SK-OV-3, 48 h
T-24 = test: Cytotoxicity against human T-24 cells assessed as reduction in cell viability measured after 48 hrs by MTT assay; assay type: functional, cell-based; conditions: T-24, 48 h
HepG2 = test: Cytotoxicity against human HepG2 cells assessed as reduction in cell viability measured after 48 hrs by MTT assay; assay type: functional, cell-based; conditions: HepG2, 48 h
MGC-803 = test: Cytotoxicity against human MGC-803 cells assessed as reduction in cell viability measured after 48 hrs by MTT assay; assay type: functional, cell-based; conditions: MGC-803, 48 h
WI-38 = test: Cytotoxicity against human WI-38 cells assessed as reduction in cell viability measured after 48 hrs by MTT assay; assay type: cell-based; conditions: WI-38, 48 h
L02 = test: Cytotoxicity against human HL7702 cells assessed as reduction in cell viability measured after 48 hrs by MTT assay; assay type: cell-based; conditions: L02, 48 h

How did the IC50 (SK-OV-3) turn out when Oc1cccc(/C=N/c2cc3ccccc3nc2-c2ccccc2F)c1O was run?
Its IC50 is 23.6 µM.

And the IC50 (T-24)?
The IC50 was over 40 µM.

And the IC50 (HepG2)?
The IC50 was over 40 µM.

What about the IC50 (MGC-803) of the same compound?
The IC50 was over 40 µM.

What about the IC50 (WI-38) of the same compound?
Its IC50 is over 40 µM.

And the IC50 (L02)?
Its IC50 is 34 µM.
